Measured values taken from the supplement of paper PMC13380429.
Structures can show the parent of a compound that is named as a salt.

How the values were obtained:
Settings in all cases: 72 h
Calu-3 [1] = experiment: relative viability EC50 (midpoint between 100% and the lowest measured viability); higher = less toxic
HepG2 [2] = experiment: as above
Caco-2 [3] = experiment: as above
U2OS [4] = experiment: as above
Vero E6 [5] = experiment: as above
Calu-3 [6] = experiment: drug sensitivity score (DSS) for viability; higher = more toxic; extreme values may be limits of the assay
HepG2 [7] = experiment: as above
Caco-2 [8] = experiment: as above
U2OS [9] = experiment: as above
Vero E6 [10] = experiment: as above
Calu-3 [11] = experiment: cell viability relative to DMSO; higher = less toxic
HepG2 [12] = experiment: as above
Caco-2 [13] = experiment: as above
U2OS [14] = experiment: as above
Vero E6 [15] = experiment: as above

Row | Structure (SMILES) | relative viability EC50 (Calu-3 [1]) | relative viability EC50 (HepG2 [2]) | relative viability EC50 (Caco-2 [3]) | relative viability EC50 (U2OS [4]) | relative viability EC50 (Vero E6 [5]) | drug sensitivity score (Calu-3 [6]) | drug sensitivity score (HepG2 [7]) | drug sensitivity score (Caco-2 [8]) | drug sensitivity score (U2OS [9]) | drug sensitivity score (Vero E6 [10]) | cell viability (Calu-3 [11]; 1 nM) | cell viability (Calu-3 [11]; 10 nM) | cell viability (Calu-3 [11]; 100 nM) | cell viability (Calu-3 [11]; 1000 nM) | cell viability (Calu-3 [11]; 10000 nM) | cell viability (HepG2 [12]; 1 nM) | cell viability (HepG2 [12]; 10 nM) | cell viability (HepG2 [12]; 100 nM) | cell viability (HepG2 [12]; 1000 nM) | cell viability (HepG2 [12]; 10000 nM) | cell viability (Caco-2 [13]; 1 nM) | cell viability (Caco-2 [13]; 10 nM) | cell viability (Caco-2 [13]; 100 nM) | cell viability (Caco-2 [13]; 1000 nM) | cell viability (Caco-2 [13]; 10000 nM) | cell viability (U2OS [14]; 1 nM) | cell viability (U2OS [14]; 10 nM) | cell viability (U2OS [14]; 100 nM) | cell viability (U2OS [14]; 1000 nM) | cell viability (U2OS [14]; 10000 nM) | cell viability (Vero E6 [15]; 1 nM) | cell viability (Vero E6 [15]; 10 nM) | cell viability (Vero E6 [15]; 100 nM) | cell viability (Vero E6 [15]; 1000 nM) | cell viability (Vero E6 [15]; 10000 nM)
1 | CCc1ccc(OCc2ccccc2C(=O)Nc2ccc3nc(C)cc(N)c3c2)cc1 [JTC-801] | 3.18 µM | 2.25 µM | 2.49 µM | 3 µM | 2.69 µM | 5.6 | 7.4 | 6.8 | 5.9 | 6.4 | 97.7% | 102% | 100% | 100% | 0.2% | 114% | 95.6% | 102% | 89% | -0.1% | 97.8% | 94.5% | 90.4% | 91.9% | 0.6% | 96% | 99.2% | 96.6% | 97.8% | -0.1% | 101% | 99.7% | 102% | 94.1% | -0.1%
2 | N#C/C(=C\c1cn(-c2ccccc2)c2ccccc12)C(=O)O [UK-5099] | > 10 µM | > 10 µM | > 10 µM | > 10 µM | > 10 µM | 0 | 0 | 0 | 0 | 0 | 106% | 90.1% | 106% | 93.1% | 106% | 105% | 101% | 101% | 97% | 95.7% | 98.1% | 106% | 100% | 94% | 104% | 98.5% | 98.8% | 95.4% | 103% | 106% | 98.1% | 102% | 99.7% | 99.8% | 101%
3 | O=C(O)CC/C=C\C[C@@H]1CO[C@H](c2ccccc2Cl)O[C@@H]1c1ccccc1O (racemic) | > 10 µM | > 10 µM | > 10 µM | > 10 µM | > 10 µM | 0 | 0 | 0 | 0 | 0 | 93.8% | 96.1% | 102% | 99% | 98.9% | 88.5% | 103% | 106% | 108% | 110% | 91.4% | 90.3% | 105% | 96.9% | 92.6% | 96.6% | 95% | 97.4% | 95.5% | 99.2% | 93.1% | 96.3% | 92.6% | 102% | 106%
4 | CCC(NC(C)C)C(O)c1ccc(O)c(O)c1 (stereo not given) [isoetharine] | > 10 µM | > 10 µM | > 10 µM | > 10 µM | > 10 µM | 0 | 0 | 0 | 0 | 0 | 108% | 98.9% | 88.4% | 103% | 95.6% | 102% | 96.7% | 104% | 101% | 102% | 85.9% | 100% | 118% | 102% | 104% | 90.2% | 97.3% | 95.1% | 95.4% | 94% | 93.1% | 91.8% | 92.9% | 91.9% | 102%
5 | Cc1cccc(-c2n[nH]cc2-c2ccc3ncccc3n2)n1 [repsox] | > 10 µM | > 10 µM | > 10 µM | > 10 µM | > 10 µM | 0.7 | 0 | 0 | 0 | 1 | 95.1% | 94.4% | 98.6% | 101% | 78.4% | 100% | 104% | 98.8% | 95.9% | 91% | 94% | 98.2% | 95% | 105% | 95% | 96% | 101% | 92.4% | 93.4% | 94.8% | 102% | 97.8% | 103% | 89.5% | 84.8%
6 | Nc1cccc(-c2cc3c(Oc4cccc(O)c4)ncnc3[nH]2)c1 [TWS-119] | 2.79 µM | > 10 µM | 1.85 µM | 2.82 µM | 1.59 µM | 4.6 | 0 | 5 | 4.6 | 7 | 108% | 97.8% | 86.2% | 96.4% | 25.7% | 113% | 107% | 128% | 104% | 90.1% | 99.3% | 99.4% | 98.2% | 89.5% | 40.4% | 103% | 108% | 102% | 96.6% | 25.2% | 110% | 101% | 101% | 82.2% | 24.9%
7 | CO/N=C(\C(=O)N[C@@H]1C(=O)N2C(C(=O)O)=C(Cn3ccc(=N)n3CCO)CS[C@H]12)c1csc(N)n1 [Cefoselis sulfate] | > 10 µM | > 10 µM | > 10 µM | > 10 µM | > 10 µM | 0 | 0 | 0 | 0 | 0 | 95.8% | 100% | 95.7% | 96.1% | 104% | 102% | 116% | 91.4% | 103% | 101% | 106% | 97.6% | 90.7% | 106% | 93.8% | 96.6% | 103% | 93.8% | 102% | 101% | 103% | 102% | 105% | 97.2% | 101%
